By IC50 is commonly meant the point on the concentration scale where inhibition reaches its midpoint.

Each structure is given as a SMILES string.

The target of this experiment is human NaV subtype, like NaV 1.7 (Homo sapiens, UniProt Q15858). Nature of the experiment: E-VIPR optical membrane potential assay with electrical stimulation. Format: cell-based. The settings on record: active against one or more sodium channels; assay and NaV subtype not specified for Table 3; read-out: IC50 Binned Activity Data. A digest of the protocol: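 HEK cells expressing human NaV (e.g. NaV1.7), loaded with CC2-DMPE/DiSBAC6(3) FRET dyes, compounds 20–35 min at room temperature, 0.625% DMSO, KCl 4.5–20 mM. Electrical stimulation ~9 s at 400 Hz scan; background-subtracted 460/580 nm emission ratios normalized; tetracaine 125 µM as positive control.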
Sequence of human NaV subtype, like NaV 1.7 (Q15858 whole entry): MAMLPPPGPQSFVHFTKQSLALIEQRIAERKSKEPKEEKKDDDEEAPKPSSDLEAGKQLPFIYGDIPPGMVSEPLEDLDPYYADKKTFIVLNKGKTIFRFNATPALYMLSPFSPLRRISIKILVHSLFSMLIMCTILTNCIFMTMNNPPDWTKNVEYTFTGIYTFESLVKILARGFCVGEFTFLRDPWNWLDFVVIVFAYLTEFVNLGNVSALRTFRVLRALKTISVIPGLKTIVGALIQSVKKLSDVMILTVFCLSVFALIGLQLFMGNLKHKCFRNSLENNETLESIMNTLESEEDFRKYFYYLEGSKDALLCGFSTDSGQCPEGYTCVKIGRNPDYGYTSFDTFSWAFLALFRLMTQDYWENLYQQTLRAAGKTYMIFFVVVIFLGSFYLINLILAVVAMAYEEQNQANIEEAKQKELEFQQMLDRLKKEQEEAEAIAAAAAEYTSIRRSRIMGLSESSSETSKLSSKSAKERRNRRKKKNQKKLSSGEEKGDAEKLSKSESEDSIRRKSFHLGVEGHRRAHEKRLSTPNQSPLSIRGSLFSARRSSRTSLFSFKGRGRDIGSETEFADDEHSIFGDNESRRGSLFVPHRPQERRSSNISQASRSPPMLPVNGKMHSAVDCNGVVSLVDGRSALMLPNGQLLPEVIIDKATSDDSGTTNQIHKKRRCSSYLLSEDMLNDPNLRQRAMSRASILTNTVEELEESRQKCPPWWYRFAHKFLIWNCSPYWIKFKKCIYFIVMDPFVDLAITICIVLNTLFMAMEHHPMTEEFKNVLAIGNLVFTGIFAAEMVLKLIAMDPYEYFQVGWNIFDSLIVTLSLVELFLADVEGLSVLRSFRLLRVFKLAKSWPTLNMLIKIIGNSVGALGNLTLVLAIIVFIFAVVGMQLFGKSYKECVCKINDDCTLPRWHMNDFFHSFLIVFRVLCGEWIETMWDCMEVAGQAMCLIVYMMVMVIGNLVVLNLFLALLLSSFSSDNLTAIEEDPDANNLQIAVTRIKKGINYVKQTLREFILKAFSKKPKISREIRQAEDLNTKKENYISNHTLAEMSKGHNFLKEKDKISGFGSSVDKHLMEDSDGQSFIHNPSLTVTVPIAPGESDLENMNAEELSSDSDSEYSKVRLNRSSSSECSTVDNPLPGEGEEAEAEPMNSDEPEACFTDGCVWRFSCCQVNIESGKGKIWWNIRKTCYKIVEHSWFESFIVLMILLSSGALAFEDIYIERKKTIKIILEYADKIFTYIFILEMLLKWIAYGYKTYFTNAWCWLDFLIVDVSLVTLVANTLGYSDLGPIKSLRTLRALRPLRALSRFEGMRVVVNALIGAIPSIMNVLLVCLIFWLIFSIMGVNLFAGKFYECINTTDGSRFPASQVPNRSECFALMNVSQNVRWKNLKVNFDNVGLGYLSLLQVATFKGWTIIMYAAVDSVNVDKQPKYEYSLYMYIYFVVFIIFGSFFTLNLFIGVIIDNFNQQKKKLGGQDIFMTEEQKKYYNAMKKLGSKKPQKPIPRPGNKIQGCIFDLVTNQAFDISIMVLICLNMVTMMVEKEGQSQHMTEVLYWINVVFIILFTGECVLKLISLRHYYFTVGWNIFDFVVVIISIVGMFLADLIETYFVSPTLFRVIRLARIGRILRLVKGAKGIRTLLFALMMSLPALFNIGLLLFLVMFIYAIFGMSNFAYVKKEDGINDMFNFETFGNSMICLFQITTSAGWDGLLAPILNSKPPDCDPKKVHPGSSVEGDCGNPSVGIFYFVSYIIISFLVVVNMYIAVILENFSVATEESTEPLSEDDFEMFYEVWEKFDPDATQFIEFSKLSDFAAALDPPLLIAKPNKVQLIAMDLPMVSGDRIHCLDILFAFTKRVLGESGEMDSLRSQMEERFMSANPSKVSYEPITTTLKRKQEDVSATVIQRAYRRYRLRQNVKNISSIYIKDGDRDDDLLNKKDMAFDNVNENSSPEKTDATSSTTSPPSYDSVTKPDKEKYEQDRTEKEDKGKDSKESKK
Regarding `CC(C)Oc1ccc(C(=O)N2CCC3(CC2)C[C@@H](OC(C)C)c2cc(F)ccc2O3)cc1CO` [Compound 148], the half-maximal inhibitory concentration (IC50) was at most 2000 nM.

On to `Cc1cc(C(=O)N2CCC3(CC2)C[C@H](OC(C)C)c2ccccc2O3)ccc1O` [Compound 149], for which the IC50 was at most 2000 nM.

On to `COc1cc(C(=O)N2CCC3(CC2)CC(OC(C)C)c2ccccc2O3)ccc1OC(C)C` (stereo not shown) [Compound 150], for which the half-inhibitory concentration (IC50) is at most 2000 nM.

For the compound `COc1cc(C(=O)N2CCC3(CC2)Oc2ccccc2C(OC(C)C)C3(C)C)ccc1OC(C)C` (stereo not shown) [Compound 151], the IC50 was at most 2000 nM.

Consider `COc1cc(C(=O)N2CCC3(CC2)CC(Oc2ccccc2C#N)c2ccccc2O3)ccc1OC(C)C` (stereo not shown) [Compound 152], for which the IC50 is at most 2000 nM.

`CC(C)O[C@@H]1CC2(CCN(C(=O)c3ccc(S(=O)(=O)C(C)C)cc3)CC2)Oc2c(F)cc(F)cc21` [Compound 153]: the IC50 was 2000 to 5000 nM.

Regarding `CC(C)O[C@H]1CC2(CCN(C(=O)c3ccc(C(C)(C)O)c(F)c3)CC2)Oc2cc(F)ccc21` [Compound 154], the concentration for half-maximal inhibition (IC50) is at most 2000 nM.

`COc1cc(C(=O)N2CCC3(CC2)C[C@@H](OC(C)C)c2cc(F)ccc2O3)ccc1O[C@@H]1CCOC1` [Compound 155]: the IC50 was at most 2000 nM.

`Cc1cc(C(=O)N2CCC3(CC2)C[C@@H](OC(C)C)c2cc(F)ccc2O3)ccc1S(C)(=O)=O` [Compound 156]: the half-maximal inhibitory concentration (IC50) is at most 2000 nM.

With `CC(C)OC1CC2(CCN(C(=O)c3ccccc3OC(F)(F)F)CC2)Oc2ccccc21` (stereo not shown) [Compound 157], the IC50 is at most 2000 nM.

As for `COc1cc(C(=O)N2CCC3(CC2)CC(OCC2CC2)c2ccccc2O3)ccc1OC(C)C` (stereo not shown) [Compound 158], the IC50 is at most 2000 nM.

With `Cc1cc(C(F)F)n2ncc(C(=O)N3CCC4(CC3)C[C@H](OC(C)C)c3ccccc3O4)c2n1` [Compound 159], the IC50 was at most 2000 nM.

In the case of `COc1cc(C(=O)N2CCC3(CC2)C[C@@H](OC(C)C)c2ccccc2O3)ccc1C(C)(C)CO` [Compound 160], the half-maximal inhibitory concentration (IC50) was at most 2000 nM.

For `CC(C)O[C@@H]1CC2(CCN(C(=O)c3ccc([S+]([O-])C(C)C)cc3)CC2)Oc2ccc(F)cc21` (stereo partly shown) [Compound 161], the concentration for half-maximal inhibition (IC50) was at most 2000 nM.

Turning to `COc1cc(C(=O)N2CCC3(CCc4ccccc4O3)CC2)ccc1OC(C)C` [Compound 162], the IC50 fell in the range of 2000 to 5000 nM.

For the compound `COc1cc(C(=O)N2CCC3(CC2)CC(COC(C)C)c2ccccc2O3)ccc1C(C)(C)O` (stereo not shown) [Compound 163], the half-inhibitory concentration (IC50) is at most 2000 nM.

Consider `CC(C)Oc1ccc(C(=O)N2CCC3(CC2)C[C@@H](OC(C)C)c2cc(F)ccc2O3)cc1C#N` [Compound 164], for which the IC50 was at most 2000 nM.

In the case of `COc1cc(C(=O)N2CCC3(CC2)Oc2ccccc2CC3OC)ccc1OC(C)C` (stereo not shown) [Compound 165], the IC50 was at most 2000 nM.

With `COc1cc(C(=O)N2CCC3(CC2)C[C@H](OC(C)C)c2ccccc2O3)ccc1C(C)(C)O` [Compound 166], the IC50 was at most 2000 nM.

With `CC(C)Oc1ccc(C(=O)N2CCC3(CC2)C[C@H](OC(C)C)c2ccccc2O3)cc1C#N` [Compound 167], the IC50 was at most 2000 nM.

Take `COCC1CC2(CCN(C(=O)c3ccc(OC(C)C)c(OC)c3)CC2)Oc2ccccc21` (stereo not shown) [Compound 168]: the IC50 was at most 2000 nM.

Take `Cc1cc(OC(C)C)ccc1C(=O)N1CCC2(CC1)C[C@@H](OC(C)C)c1ccccc1O2` [Compound 169]: the IC50 is at most 2000 nM.

Take `COc1cc(O)ccc1C(=O)N1CCC2(CC1)C[C@@H](OC(C)C)c1ccccc1O2` [Compound 170]: the IC50 is at most 2000 nM.

In the case of `COc1cc(C(=O)N2CCC3(CC2)C[C@H](OC(C)C)c2ccccc2O3)ccc1OC(C)C` [Compound 171], the half-inhibitory concentration (IC50) was at most 2000 nM.

With `COc1cc(C(=O)N2CCC3(CC2)CC(OC2CCC2)c2ccccc2O3)ccc1OC(C)C` (stereo not shown) [Compound 172], the IC50 is at most 2000 nM.

Regarding `CC(C)Oc1ccc(C(=O)N2CCC3(CC2)C[C@@H](OC(C)C)c2cc(F)ccc2O3)cc1CN(C)C` [Compound 173], the IC50 was at most 2000 nM.

With `CC(C)O[C@@H]1CC2(CCN(C(=O)c3ccc(NC(C)(C)C)cn3)CC2)Oc2ccc(F)cc21` [Compound 174], the IC50 was at most 2000 nM.

As for `CC(C)O[C@@H]1CC2(CCN(C(=O)c3ccc(S(=O)(=O)C(C)C)cn3)CC2)Oc2ccc(F)cc21` [Compound 175], the IC50 was at most 2000 nM.

Take `CC(C)O[C@@H]1CC2(CCN(C(=O)c3ccc(N4CC(C)OC(C)C4)cn3)CC2)Oc2ccc(F)cc21` (stereo partly shown) [Compound 176]: the IC50 was at most 2000 nM.

As to `COc1cc(C(=O)N2CCC3(CC2)CC(OC(C)C)c2cccc(F)c2O3)ccc1OC(C)C` (stereo not shown) [Compound 177], the IC50 is at most 2000 nM.

For `CCCNc1ccc(C(=O)N2CCC3(CC2)C[C@@H](OC(C)C)c2cc(F)ccc2O3)nc1` [Compound 178], the IC50 was at most 2000 nM.

The values above are taken from US10385070B2, “Chroman-spirocyclic piperidine amides as modulators of ion channels” (VERTEX PHARMACEUTICALS INCORPORATED, priority 2011, dated 2019).
